Reference: ChEMBL document CHEMBL5505999, “Discovery of anti-inflammatory agents from 3, 4-dihydronaphthalene-1(2H)-one derivatives by inhibiting NLRP3 inflammasome activation” (Eur J Med Chem, 2024)

Experiments:
[1] = Cytotoxicity against mouse RAW264.7 cells assessed as survival rate at 2.5 uM incubated overnight by CCK-8 assay relative to control; type: toxicity, cell-based; conditions: read-out: Survival
RAW264.7 [2] = assay: Anti-inflammatory activity in mouse RAW264.7 cells assessed as inhibition of LPS-induced TNF-alpha production at 2.5 uM pretreated with compound for 2 hrs followed by LPS addition and measured after 22 hrs by ELISA relative to control; type: functional; conditions: time 24 hrs
RAW264.7 [3] = assay: Anti-inflammatory activity in mouse RAW264.7 cells assessed as inhibition of LPS-induced IL-6 production at 2.5 uM pretreated with compound for 2 hrs followed by LPS addition and measured after 22 hrs by ELISA relative to control; type: functional; conditions: time 24 hrs
RAW264.7 [4] = assay: Anti-inflammatory activity in mouse RAW264.7 cells assessed as inhibition of LPS-induced TNF-alpha production at 10 uM pretreated with compound for 2 hrs followed by LPS addition and measured after 22 hrs by ELISA relative to control; type: functional; conditions: time 24 hrs
RAW264.7 [5] = assay: Anti-inflammatory activity in mouse RAW264.7 cells assessed as inhibition of LPS-induced IL-6 production at 10 uM pretreated with compound for 2 hrs followed by LPS addition and measured after 22 hrs by ELISA relative to control; type: functional; conditions: time 24 hrs

| Structure (SMILES) | viability at 2.5 µM [1] | inhibition at 2.5 µM (RAW264.7 [2]) | inhibition at 2.5 µM (RAW264.7 [3]) | inhibition at 10 µM (RAW264.7 [4]) | inhibition at 10 µM (RAW264.7 [5]) |
| --- | --- | --- | --- | --- | --- |
| O=C1/C(=C/c2ccc(N3CCOCC3)cc2)CCc2ccc(F)cc21 | 82.7% | 29.5% | 46.2% | – | – |
| CN1CCN(c2ccc(/C=C3\CCc4ccc(F)cc4C3=O)nc2)CC1 | 93.5% | 30.5% | 47.2% | – | – |
| CN1CCN(c2ccc(/C=C3\CCc4cc(Br)ccc4C3=O)nc2)CC1 | 96.8% | 40.6% | 55.9% | – | – |
| CN1CCN(c2ccc(/C=C3\CCc4ccc(Br)cc4C3=O)cn2)CC1 | 104% | 51% | 63.4% | – | – |
| CN1CCN(c2ccc(/C=C3\CCc4cc(Br)ccc4C3=O)cc2)CC1 | 87% | 42.4% | 53.3% | – | – |
| O=C1/C(=C/c2ccc(N3CCOCC3)cc2)CCc2ccc(O)cc21 | 81.6% | 32.3% | 48.9% | – | – |
| COc1ccc2c(c1)CC/C(=C\c1ccc(N3CCN(C)CC3)nc1)C2=O | 88.9% | 39.6% | 55% | – | – |
| CN1CCN(c2ccc(/C=C3\CCc4ccc(F)cc4C3=O)cc2)CC1 | 91.5% | 37.3% | 57.3% | – | – |
| CN1CCN(c2ccc(/C=C3\CCc4ccc(O)cc4C3=O)cc2)CC1 | 103% | 41.1% | 56.3% | – | – |
| CN1CCN(c2ccc(/C=C3\CCc4ccc(O)cc4C3=O)cn2)CC1 | 85.5% | 55.9% | 66.6% | – | – |
| CN1CCN(c2ccc(/C=C3\CCc4ccc(O)cc4C3=O)nc2)CC1 | 98.6% | 41.6% | 56.7% | – | – |
| COc1ccc2c(c1)C(=O)/C(=C/c1ccc(N3CCOCC3)nc1)CC2 | 82.4% | 27.6% | 44.3% | – | – |
| COc1ccc2c(c1)C(=O)/C(=C/c1ccc(N3CCN(C)CC3)nc1)CC2 | 84.9% | 34.7% | 51.1% | – | – |
| COc1ccc2c(c1)C(=O)/C(=C/c1ccc(OC)c(C(F)(F)F)c1)CC2 | 114% | 51% | 44.2% | – | – |
| O=C1/C(=C/c2ccc(N3CCOCC3)nc2)CCc2cc(Br)ccc21 | 86.2% | 31.4% | 47.5% | – | – |
| COc1ccc2c(c1)CC/C(=C\c1ccc(N3CCOCC3)nc1)C2=O | 96% | 45% | 59.2% | – | – |
| O=C1/C(=C/c2ccc(-n3ccnc3)cc2)CCc2ccc(F)cc21 | 98% | 19% | 34.3% | – | – |
| O=C1/C(=C/c2ccc(N3CCOCC3)cc2)CCc2ccc(Br)cc21 | 82.7% | 22.4% | 38.6% | – | – |
| COc1ccc2c(c1)CC/C(=C\c1ccc(N3CCOCC3)cc1)C2=O | 89.3% | 31.6% | 53.1% | – | – |
| CN1CCN(c2ccc(/C=C3\CCc4cc(F)ccc4C3=O)cn2)CC1 | 98.2% | 32.8% | 49.3% | – | – |
| COc1ccc2c(c1)C(=O)/C(=C/c1ccc(-n3ccnc3)cc1)CC2 | 88.7% | 39.8% | 55.3% | – | – |

| Structure (SMILES) | viability at 2.5 µM [1] | inhibition at 2.5 µM (RAW264.7 [2]) | inhibition at 2.5 µM (RAW264.7 [3]) | inhibition at 10 µM (RAW264.7 [4]) | inhibition at 10 µM (RAW264.7 [5]) |
| --- | --- | --- | --- | --- | --- |
| O=C1/C(=C/c2ccc(N3CCOCC3)nc2)CCc2ccc(O)cc21 | 104% | 30.8% | 48% | – | – |
| O=C1/C(=C/c2ccc(-n3ccnc3)cc2)CCc2cc(Br)ccc21 | 82.6% | 32.4% | 49% | – | – |
| CN1CCN(c2ccc(/C=C3\CCc4ccc(F)cc4C3=O)cn2)CC1 | 88.7% | 35.3% | 51.6% | – | – |
| O=C1/C(=C/c2ccc(N3CCOCC3)nc2)CCc2ccc(Br)cc21 | 96.2% | 23.8% | 36.1% | – | – |
| COc1ccc2c(c1)CC/C(=C\c1ccc(-n3ccnc3)cc1)C2=O | 92.8% | 31.7% | 48.2% | – | – |
| O=C1/C(=C/c2ccc(-n3ccnc3)cc2)CCc2cc(F)ccc21 | 80.7% | 39.4% | 54.9% | – | – |
| S=C(S)N1CCCC1 [PYRROLIDINE DITHIOCARBAMATE] | – | – | – | 36% | 48% |
| O=C1/C(=C/c2ccc(N3CCOCC3)cc2)CCc2cc(F)ccc21 | 81.1% | 32.1% | 48.7% | – | – |
| CN1CCN(c2ccc(/C=C3\CCc4ccc(Br)cc4C3=O)cc2)CC1 | 116% | 49.8% | 62.6% | – | – |
| COc1ccc2c(c1)C(=O)/C(=C/c1ccc(N3CCOCC3)cc1)CC2 | 82.2% | 30.5% | 47.2% | – | – |
| O=C1/C(=C/c2ccc(-n3ccnc3)cc2)CCc2ccc(O)cc21 | 87.1% | 25.3% | 50.2% | – | – |
| O=C1/C(=C/c2ccc(N3CCOCC3)cc2)CCc2cc(Br)ccc21 | 92.8% | 29.6% | 46.4% | – | – |
| CN1CCN(c2ccc(/C=C3\CCc4cc(F)ccc4C3=O)cc2)CC1 | 90.5% | 37.1% | 48.4% | – | – |
| O=C1/C(=C/c2ccc(N3CCOCC3)nc2)CCc2cc(F)ccc21 | 85.2% | 31% | 47.7% | – | – |
| COc1ccc2c(c1)C(=O)/C(=C/c1ccc(N3CCN(C)CC3)cn1)CC2 | 89% | 35.3% | 51.6% | – | – |
| COc1ccc2c(c1)CC/C(=C\c1ccc(N3CCN(C)CC3)cc1)C2=O | 91.3% | 34.6% | 50.9% | – | – |
| O=C1/C(=C/c2ccc(-n3ccnc3)cc2)CCc2ccc(Br)cc21 | 91.2% | 39.8% | 55.3% | – | – |
| CN1CCN(c2ccc(/C=C3\CCc4cc(Br)ccc4C3=O)cn2)CC1 | 87.8% | 39% | 54.7% | – | – |
| COc1ccc2c(c1)C(=O)/C(=C/c1ccc(N3CCN(C)CC3)cc1)CC2 | 98% | 33.6% | 50.1% | – | – |
| O=C1/C(=C/c2ccc(N3CCOCC3)nc2)CCc2ccc(F)cc21 | 99.8% | 23.8% | 40.2% | – | – |
